Source: EP3478687B1 (Daewoong Pharmaceutical Co., Ltd., priority 2016, dated 2018)

Columns and labels:
[1] = biological target: T1, Recombinant purified human BTK (Homo sapiens, UniProt Q06187); assay: BTK kinase inhibitory activity, ADP-Glo kinase assay (Promega V9071); format: biochemical; conditions: for IC50: ATP 10 uM, 8 ng BTK per reaction, 1 hour 30 °C, chemiluminescence; for inhibition at 0.1 µM: @100nM compound
T1 construct: purchased Promega V9071
Procedure: (§1) JAK3 and BTK kinase inhibitory activities were measured for the compounds prepared in the above Examples through in vitro analysis on the ADP Glow (Glo) platform.
(§2) Specifically, the inhibitory activities of JAK3 and BTK kinase were measured using a JAK3 kinase assay kit (Promega, V9441) and a BTK kinase assay kit (Promega, V9071) which were purchased from Promega. Recombinant purified human JAK3 and BTK were diluted with 1 x kinase reaction buffer (JAK3: 40 mM Tris-Cl, pH 7.5, 20 mM MgCh, 0.1 mg/mL BSA and 50 uM DTT / BTK: 40 mM Tris-Cl, pH 7.5, 20 mM MgCl2, 0.1 mg/mL BSA, 2 mM MnCl2 and 50 uM DTT) and added to a 96 well plate (JAK3: final concentration of 4 ng per reaction/BTK: final concentration of 8 ng per reaction). The compounds were treated so as to be finally a 1% DMSO aqueous solution, and a substrate cocktail containing ATP (JAK3: final concentration of 5 uM / BTK: final concentration of 10 uM) and 0.2 µg/µL of Poly(Glu4, Tyr1) peptide (JAK3 and BTK final concentration) in the total 25 µL reactants was added to a 96-well plate to initiate enzymatic reaction. After incubation (30 °C) for 1 hour, equivalent volume (25 µL per reaction) of ADP Glo was added and incubated (30 °C) for 40 minutes at room temperature. Then, a kinase detection reagent (50 µL per reaction) was added and incubated (30 °C) for 30 minutes at room temperature. The kinase activity was measured by chemiluminescence according to the instructions of ADP Glo kinase assay kit, and the inhibitory activity of the compounds according to the present invention was calculated. For the analysis of the results of each compound, Microsoft Excel was used, and IC50 values were calculated by SigmaPlot software.

[2] = biological target: T2, Recombinant purified human JAK3 (Homo sapiens, UniProt P52333); assay: JAK3 kinase inhibitory activity, ADP-Glo kinase assay (Promega V9441); format: biochemical; conditions: for IC50: ATP 5 uM, 4 ng JAK3 per reaction, 1 hour 30 °C, chemiluminescence; for inhibition at 0.1 µM: @100nM compound
T2 construct: purchased Promega V9441
T2 sequence (P52333 1-1124): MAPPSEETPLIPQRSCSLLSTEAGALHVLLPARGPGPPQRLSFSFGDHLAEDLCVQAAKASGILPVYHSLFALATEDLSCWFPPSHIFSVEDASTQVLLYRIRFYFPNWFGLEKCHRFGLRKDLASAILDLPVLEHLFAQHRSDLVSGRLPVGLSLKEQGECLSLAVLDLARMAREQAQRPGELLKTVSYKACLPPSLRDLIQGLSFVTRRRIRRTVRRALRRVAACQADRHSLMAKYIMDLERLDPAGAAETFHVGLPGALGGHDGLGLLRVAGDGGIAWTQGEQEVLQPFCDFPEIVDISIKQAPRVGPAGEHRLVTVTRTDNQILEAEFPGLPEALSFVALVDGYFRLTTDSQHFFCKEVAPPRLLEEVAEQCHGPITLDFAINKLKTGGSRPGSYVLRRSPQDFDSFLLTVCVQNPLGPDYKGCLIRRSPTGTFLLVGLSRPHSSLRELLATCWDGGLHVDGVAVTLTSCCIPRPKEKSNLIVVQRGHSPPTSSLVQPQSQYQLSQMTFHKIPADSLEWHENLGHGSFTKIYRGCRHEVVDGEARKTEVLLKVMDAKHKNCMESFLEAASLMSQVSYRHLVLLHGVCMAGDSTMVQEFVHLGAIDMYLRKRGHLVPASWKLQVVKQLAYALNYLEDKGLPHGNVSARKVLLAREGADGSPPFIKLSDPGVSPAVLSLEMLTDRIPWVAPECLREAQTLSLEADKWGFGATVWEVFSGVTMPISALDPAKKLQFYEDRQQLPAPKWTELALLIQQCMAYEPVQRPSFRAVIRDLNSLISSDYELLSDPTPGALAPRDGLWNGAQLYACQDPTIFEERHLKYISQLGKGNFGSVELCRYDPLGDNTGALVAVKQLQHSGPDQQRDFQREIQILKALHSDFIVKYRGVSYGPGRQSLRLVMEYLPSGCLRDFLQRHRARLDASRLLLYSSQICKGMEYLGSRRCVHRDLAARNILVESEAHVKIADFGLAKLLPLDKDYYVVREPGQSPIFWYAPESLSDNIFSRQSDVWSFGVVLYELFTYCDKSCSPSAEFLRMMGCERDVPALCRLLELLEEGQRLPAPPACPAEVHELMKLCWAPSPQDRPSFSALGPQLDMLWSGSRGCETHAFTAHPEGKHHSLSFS
Procedure: as §1, §2

[3] = printed in the JAK3 IC50 column

T1 sequence (Q06187 whole entry): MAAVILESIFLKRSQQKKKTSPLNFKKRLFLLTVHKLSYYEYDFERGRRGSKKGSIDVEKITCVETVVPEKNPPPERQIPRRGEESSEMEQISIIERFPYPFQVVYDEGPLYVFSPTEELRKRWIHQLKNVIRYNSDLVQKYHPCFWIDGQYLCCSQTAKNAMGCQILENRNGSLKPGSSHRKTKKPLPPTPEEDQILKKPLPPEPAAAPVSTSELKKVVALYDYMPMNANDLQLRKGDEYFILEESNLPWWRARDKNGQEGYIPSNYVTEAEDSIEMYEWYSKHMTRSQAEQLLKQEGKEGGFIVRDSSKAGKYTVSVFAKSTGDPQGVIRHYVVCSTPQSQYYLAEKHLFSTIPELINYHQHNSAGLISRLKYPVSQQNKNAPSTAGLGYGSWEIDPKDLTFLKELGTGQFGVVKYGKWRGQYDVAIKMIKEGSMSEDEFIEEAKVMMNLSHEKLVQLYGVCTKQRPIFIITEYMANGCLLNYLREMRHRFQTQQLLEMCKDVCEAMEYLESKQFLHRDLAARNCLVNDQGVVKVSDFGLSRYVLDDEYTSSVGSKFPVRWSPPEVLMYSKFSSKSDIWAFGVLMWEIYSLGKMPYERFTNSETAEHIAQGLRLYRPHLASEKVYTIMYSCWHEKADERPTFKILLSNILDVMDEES

IC50 [1]	IC50 [2]	SMILES	other results
10.7 nM	3.73 nM	C=CC(=O)N1CCC[C@@H](Nc2nc(Nc3ccc(N4CCN(C)CC4)cc3)nc3[nH]ccc23)C1 [Example 1, (R)-1-(3-(2-(4-(4-methylpiperazin-1-yl)phenylamino)-7H-pyrrolo[2,3-d]pyrimidin-4-ylamino)piperidin-1-yl)prop-2-en-1-one]	–
27 nM	8.9 nM	C=CC(=O)N1CCC[C@@H](Nc2nc(Nc3cccc(NC(=O)N4CCCC4)c3)nc3[nH]ccc23)C1 [Example 2, (R)-N-(3-(4-(1-acryloylpiperidin-3-ylamino)-7H-pyrrolo[2,3-d]pyrimidin-2-ylamino)phenyl)pyrrolidine-1-carboxamide]	–
–	–	C=CC(=O)N1CCC[C@H](Nc2nc(Nc3cccc(NC(=O)N4CCCC4)c3)nc3[nH]ccc23)C1 [Example 3, (S)-N-(3-(4-(1-acryloylpiperidin-3-ylamino)-7H-pyrrolo[2,3-d]pyrimidin-2-ylamino)phenyl)pyrrolidine-1-carboxamide]	inhibition at 0.1 µM [1]: 30%; inhibition at 0.1 µM [2, 3]: 28.2%
26.7 nM	6.9 nM	C=CC(=O)N1CCC[C@@H](Nc2nc(Nc3ccc(N4CCOCC4)cc3)nc3[nH]ccc23)C1 [Example 4, (R)-1-(3-(2-(4-morpholinophenylamino)-7H-pyrrolo[2,3-d]pyrimidin-4-ylamino)piperidin-1-yl)prop-2-en-1-one]	–
76.7 nM	24.6 nM	C=CC(=O)N1CCC[C@@H](Nc2nc(Nc3ccc(N4CCCC4)cc3)nc3[nH]ccc23)C1 [Example 5, (R)-1-(3-(2-(4-(pyrrolidin-1-yl)phenylamino)-7H-pyrrolo[2,3-d]pyrimidin-4-ylamino)piperidin-1-yl)prop-2-en-1-one]	–
9.6 nM	4.6 nM	C=CC(=O)N1CCC[C@@H](Nc2nc(Nc3ccc(-n4nc(C)cc4C)cc3)nc3[nH]ccc23)C1 [Example 6, (R)-1-(3-(2-(4-(3,5-dimethyl-1H-pyrazol-1-yl)phenylamino)-7H-pyrrolo [2,3-d]pyrimidin-4-ylamino)piperidin-1-yl)prop-2-en-1-one]	–
14 nM	5 nM	C=CC(=O)N1CCC[C@@H](Nc2nc(Nc3ccc(OCCN(CC)CC)cc3)nc3[nH]ccc23)C1 [Example 7, (R)-1-(3-(2-(4-(2-(diethylamino)ethoxy)phenylamino)-7H-pyrrolo[2,3-d]pyrimidin-4-ylamino)piperidin-1-yl)prop-2-en-1-one]	–
14.3 nM	1.3 nM	C=CC(=O)N1CCC[C@@H](Nc2nc(Nc3ccc(C(=O)N4CCOCC4)cc3)nc3[nH]ccc23)C1 [Example 8, (R)-1-(3-(2-(4-(morpholine-4-carbonyl)phenylamino)-7H-pyrrolo[2,3-d]pyrimidin-4-ylamino)piperidin-1-yl)prop-2-en-1-one]	–
20.5 nM	3.9 nM	C=CC(=O)N1CCC[C@@H](Nc2nc(Nc3ccc(N(C)C)cc3)nc3[nH]ccc23)C1 [Example 9, (R)-1-(3-(2-(4-(dimethylamino)phenylamino)-7H-pyrrolo[2,3-d]pyrimidin-4-ylamino)piperidin-1-yl)prop-2-en-1-one]	–
–	–	C=CC(=O)N1CCC[C@@H](Nc2nc(Nc3cccc(-n4nc(C)cc4C)c3)nc3[nH]ccc23)C1 [Example 10, (R)-1-(3-(2-(3-(3,5-dimethyl-1H-pyrazol-1-yl)phenylamino)-7H-pyrrolo [2,3-d]pyrimidin-4-ylamino)piperidin-1-yl)prop-2-en-1-one]	inhibition at 0.1 µM [1]: 23.7%; inhibition at 0.1 µM [2, 3]: 32.8%
–	–	C=CC(=O)N1CCC[C@H](Nc2nc(Nc3ccc(N4CCN(C)CC4)cc3)nc3[nH]ccc23)C1 [Example 11, (S)-1-(3-(2-(4-(4-methylpiperazin-1-yl)phenylamino)-7H-pyrrolo[2,3-d]pyrimidin-4-ylamino)piperidin-1-yl)prop-2-en-1-one]	inhibition at 0.1 µM [1]: 26.5%; inhibition at 0.1 µM [2, 3]: 36%
10.6 nM	1.3 nM	C=CC(=O)N1CCC[C@@H](Nc2nc(Nc3ccc4ncsc4c3)nc3[nH]ccc23)C1 [Example 12, (R)-1-(3-(2-(benzo[d]thiazol-6-ylamino)-7H-pyrrolo[2,3-d]pyrimidin-4-ylamino)piperidin-1-yl)prop-2-en-1-one]	–
–	–	C=CC(=O)N1CCC[C@@H](Nc2nc(Nc3ccc(Oc4ccccc4)cc3)nc3[nH]ccc23)C1 [Example 13, (R)-1-(3-(2-(4-phenoxyphenylamino)-7H-pyrrolo[2,3-d]pyrimidin-4-ylamino)piperidin-1-yl)prop-2-en-1-one]	inhibition at 1 µM ([1]; @1uM compound): 1%; inhibition at 1 µM ([2]; @1uM compound, printed in the JAK3 IC50 column): 0.4%
19.2 nM	1.1 nM	C=CC(=O)N1CCC[C@@H](Nc2nc(Nc3cnn(C)c3)nc3[nH]ccc23)C1 [Example 14, (R)-1-(3-(2-(1-methyl-1H-pyrazol-4-ylamino)-7H-pyrrolo[2,3-d]pyrimidin-4-ylamino)piperidin-1-yl)prop-2-en-1-one]	–
7.2 nM	0.3 nM	C=CC(=O)N1CCC[C@@H](Nc2nc(Nc3cnn(CC(F)F)c3)nc3[nH]ccc23)C1 [Example 15, (R)-1-(3-(2-(1-(2,2-difluoroethyl)-1H-pyrazol-4-ylamino)-7H-pyrrolo[2,3-d]pyrimidin-4-ylamino)piperidin-1-yl)prop-2-en-1-one]	–
10.1 nM	0.4 nM	C=CC(=O)N1CCC[C@@H](Nc2nc(Nc3cnn(C(F)F)c3)nc3[nH]ccc23)C1 [Example 16, (R)-1-(3-(2-(1-(difluoromethyl)-1H-pyrazol-4-ylamino)-7H-pyrrolo[2,3-d]pyrimidin-4-ylamino)piperidin-1-yl)prop-2-en-1-one]	–
11.8 nM	0.6 nM	C=CC(=O)N1CCC[C@@H](Nc2nc(Nc3cnn(CCOC)c3)nc3[nH]ccc23)C1 [Example 17, (R)-1-(3-(2-(1-(2-methoayethyl)-1H-pyrazol-4-ylamino)-7H-pyrrolo[2,3-d]pyrimidin-4-ylamino)piperidin-1-yl)prop-2-en-1-one]	–
8.8 nM	0.3 nM	C=CC(=O)N1CCC[C@@H](Nc2nc(Nc3cnn(CCN4CCOCC4)c3)nc3[nH]ccc23)C1 [Example 18, (R)-1-(3-(2-(1-(2-morpholinoethyl)-1H-pyrazol-4-ylamino)-7H-pyrrolo[2,3-d]pyrimidin-4-ylamino)piperidin-1-yl)prop-2-en-1-one]	–
8.7 nM	0.5 nM	C=CC(=O)N1CCC[C@@H](Nc2nc(Nc3cnn(CCN(CC)CC)c3)nc3[nH]ccc23)C1 [Example 19, (R)-1-(3-(2-(1-(2-(diethylamino)ethyl)-1H-pyrazol-4-ylamino)-7H-pyrrolo[2,3-d]pyrimidin-4-ylamino)piperidin-1-yl)prop-2-en-1-one]	–
9.5 nM	0.7 nM	C=CC(=O)N1CCC[C@@H](Nc2nc(Nc3cnn(Cc4cccc(OC)c4)c3)nc3[nH]ccc23)C1 [Example 20, (R)-1-(3-(2-(1-(3-methoxybenzyl)-1H-pyrazol-4-ylamino)-7H-pyrrolo[2,3-d]pyrimidin-4-ylamino)piperidin-1-yl)prop-2-en-1-one]	–
